One experiment has as its system Ba/F3 ERBB2 YVMA. Kind of experiment: Cell viability assay (CellTiter Glo, 72 hours). The experiment is classed as cell-based, mouse. The procedure: Cells were treated with compounds, and cell viability was measured as a metric of kinase inhibition.
BT-474, A431, MDA-MB-175VII, NCI-H1781, MCF7, and Ba/F3 cell lines were tested. The Ba/F3 cell line is IL-3-dependent mouse cell line derived from the C3H mouse strain. Ba/F3 cell lines were engineered to express human ERBB2 or EGFR kinases, rendering the cells IL-3 independent. The lines were generated via retroviral transduction utilizing a Moloney murine leukemia virus (MMLV) promoter, and constructs are stably integrated into the cell genome. The sequences of the ERBB2 and EGFR genes used were NCBI Reference Sequences NM_004448.3 and NM_005228.3, respectively.
BT-474, A431, MDA-MB-175VII, NCI-H1781 and MCF7 cells were grown in the appropriate growth medium as described in Table B2 below, and harvested at 50-80% confluence. BT-474, A431, MDA-MB-175VII, NCI-H1781 and MCF7 cells were counted and seeded at 2,000 or 1,500 cells per well in 384-well tissue culture plates (see Table B2). Similarly, Ba/F3 cell lines engineered to express EGFR, ERBB2, or ERBB2 mutants were grown, harvested, counted and seeded at 3000 cells per well in 96-well plates. A subset of wells contained media only (low control, “LC”).
Table B1 provides the growth media and number of cells seeded per well for the each cell line.
Compounds were dissolved in DMSO and serially diluted. Serially-diluted compound or a DMSO only control (high control, “HC”) was added to the plated cells in each well. Compounds were tested at concentrations of about 10 μM to 0.51 nM, using three-fold dilutions. The final proportion of DMSO never exceeded 0.1%.
Plates were placed in a 37° C., 5% CO2 incubator for 72 hours. Plates were then removed from the incubator and equilibrated for 15 minutes at room temperature. 40 μl of CellTiter Glo reagent (Promega) was added to measure the relative level of metabolically active cells by quantifying intracellular ATP concentrations. Plates were incubated for 30 minutes at room temperature, and luminescence was measured. Percent viability was normalized to a vehicle control only using the following formula: % viability=100×(LumSample−LumLC)/(LumHC−LumLC). Graphical curves were fitted using a nonlinear regression model with a sigmoidal dose response.

Experiment [1] addresses phosphorylated EGFR (pEGFR) (Homo sapiens (Human), UniProt P00533). As to the kind of experiment: Detection of phosphorylated EGFR (pEGFR) by AlphaLISA in A431 cells. The experiment is classed as cell-based. The settings on record: A431 cells (10% FBS), 4 hours incubation, EGF 30 ng/mL for 10 minutes. In outline: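 A431 cells in 10% FBS exposed to compound for 4 h at 37 °C, then stimulated 10 min with 30 ng/mL EGF. Lysates assayed for phospho-EGFR by AlphaLISA. % inhibition relative to DMSO and staurosporine controls; IC50 from four-parameter curve fit.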
On the technique in general: Alpha assays give light when donor and acceptor beads are brought close together.

Experiment [2] concerns the target phosphorylated ERBB2 (pERBB2) (Homo sapiens (Human), UniProt P04626). As to the kind of experiment: Detection of phosphorylated ERBB2 (pERBB2) by ELISA in BT-474 cells. The class given is cell-based. The settings on record: four hours incubation with compound. The gist of the method:
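BT-474 cells were exposed to serially diluted compounds for 4 h at 37 °C, then lysed. Phospho-ERBB2 in lysates was captured by ELISA and detected with an HRP anti-phosphotyrosine antibody and TMB.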

[3] abbreviates: Mus musculus, BaF3, 72 h, Ba/F3 cells engineered to express human ERBB2 YVMA mutant, 72 hours, CellTiter Glo viability, read-out: Ba/F3 ERBB2 YVMA, IC50.
Where [4] appears, read: Mus musculus, BaF3, 72 h, read-out: Ba/F3 ERBB2 YVMA, IC50, nM.
Where [5] appears, read: Ba/F3 cells engineered to express human ERBB2 YVMA mutant, 72 hours, CellTiter Glo viability, read-out: Ba/F3 ERBB2 YVMA, IC50.

Molecules are shown by their SMILES. Counter-ions that a name gives are not always drawn. Like-named read-outs stand apart in the source and are kept apart here. Bounds are passed on as bounds.

phosphorylated ERBB2 (pERBB2), sequence (P04626 23-1255): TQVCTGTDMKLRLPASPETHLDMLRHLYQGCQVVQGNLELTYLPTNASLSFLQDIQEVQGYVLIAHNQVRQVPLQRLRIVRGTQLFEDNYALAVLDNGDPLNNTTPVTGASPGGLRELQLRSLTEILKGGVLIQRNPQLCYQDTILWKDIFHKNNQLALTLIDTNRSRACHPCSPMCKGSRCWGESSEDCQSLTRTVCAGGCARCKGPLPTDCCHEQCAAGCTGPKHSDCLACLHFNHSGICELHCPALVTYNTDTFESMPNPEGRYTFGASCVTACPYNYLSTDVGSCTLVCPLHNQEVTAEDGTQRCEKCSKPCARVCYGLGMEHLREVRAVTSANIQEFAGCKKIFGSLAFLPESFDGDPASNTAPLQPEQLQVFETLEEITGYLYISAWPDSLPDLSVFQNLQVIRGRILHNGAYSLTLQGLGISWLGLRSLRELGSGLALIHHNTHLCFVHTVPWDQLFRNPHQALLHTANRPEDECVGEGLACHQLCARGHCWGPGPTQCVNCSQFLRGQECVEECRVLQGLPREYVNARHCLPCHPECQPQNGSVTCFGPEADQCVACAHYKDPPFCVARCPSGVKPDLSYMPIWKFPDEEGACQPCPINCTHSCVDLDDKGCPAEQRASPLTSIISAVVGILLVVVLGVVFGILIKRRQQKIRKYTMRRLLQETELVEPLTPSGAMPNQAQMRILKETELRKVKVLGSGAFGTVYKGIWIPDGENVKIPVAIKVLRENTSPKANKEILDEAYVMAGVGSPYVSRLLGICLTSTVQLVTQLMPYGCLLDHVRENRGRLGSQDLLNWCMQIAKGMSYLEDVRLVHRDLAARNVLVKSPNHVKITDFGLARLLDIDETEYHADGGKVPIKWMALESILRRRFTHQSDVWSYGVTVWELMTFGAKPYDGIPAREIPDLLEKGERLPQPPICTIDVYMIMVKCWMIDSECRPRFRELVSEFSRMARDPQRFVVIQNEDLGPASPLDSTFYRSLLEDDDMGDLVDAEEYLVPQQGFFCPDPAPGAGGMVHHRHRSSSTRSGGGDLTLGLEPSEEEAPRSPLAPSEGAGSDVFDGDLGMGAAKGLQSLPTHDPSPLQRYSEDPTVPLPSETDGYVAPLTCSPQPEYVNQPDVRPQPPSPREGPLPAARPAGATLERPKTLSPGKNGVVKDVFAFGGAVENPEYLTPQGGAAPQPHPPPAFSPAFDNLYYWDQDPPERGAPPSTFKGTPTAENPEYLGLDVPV
phosphorylated EGFR (pEGFR), sequence (P00533 25-1210): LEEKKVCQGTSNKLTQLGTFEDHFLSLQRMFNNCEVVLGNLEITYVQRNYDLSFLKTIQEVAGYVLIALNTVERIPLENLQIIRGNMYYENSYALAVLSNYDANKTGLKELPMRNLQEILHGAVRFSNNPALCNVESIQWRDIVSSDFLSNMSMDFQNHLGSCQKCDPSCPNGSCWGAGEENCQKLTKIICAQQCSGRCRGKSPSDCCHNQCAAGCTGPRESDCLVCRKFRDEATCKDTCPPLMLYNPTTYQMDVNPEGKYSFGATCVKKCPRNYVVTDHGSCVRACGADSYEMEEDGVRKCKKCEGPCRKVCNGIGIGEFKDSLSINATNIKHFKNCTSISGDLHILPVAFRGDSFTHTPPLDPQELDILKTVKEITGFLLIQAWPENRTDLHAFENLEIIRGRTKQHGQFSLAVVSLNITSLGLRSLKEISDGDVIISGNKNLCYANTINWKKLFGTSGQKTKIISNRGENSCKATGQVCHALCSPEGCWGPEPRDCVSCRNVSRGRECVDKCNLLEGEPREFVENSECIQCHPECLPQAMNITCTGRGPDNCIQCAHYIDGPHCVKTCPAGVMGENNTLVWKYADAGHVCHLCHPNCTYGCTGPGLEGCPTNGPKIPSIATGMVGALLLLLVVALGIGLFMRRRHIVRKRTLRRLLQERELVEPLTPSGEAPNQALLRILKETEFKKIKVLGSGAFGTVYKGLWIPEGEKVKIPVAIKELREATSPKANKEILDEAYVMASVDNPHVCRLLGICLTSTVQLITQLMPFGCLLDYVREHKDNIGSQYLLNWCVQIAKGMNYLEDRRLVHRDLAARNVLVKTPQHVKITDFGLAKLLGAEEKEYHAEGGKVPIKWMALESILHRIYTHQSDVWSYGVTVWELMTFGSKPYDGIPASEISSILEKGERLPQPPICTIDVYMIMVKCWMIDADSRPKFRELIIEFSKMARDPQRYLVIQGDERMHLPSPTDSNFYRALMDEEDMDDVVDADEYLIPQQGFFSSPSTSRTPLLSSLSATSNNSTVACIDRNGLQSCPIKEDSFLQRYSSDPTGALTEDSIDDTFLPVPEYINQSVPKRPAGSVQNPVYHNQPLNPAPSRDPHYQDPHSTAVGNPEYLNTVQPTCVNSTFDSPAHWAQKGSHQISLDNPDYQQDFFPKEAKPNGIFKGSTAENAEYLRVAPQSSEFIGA

`CC#CC(=O)N1CCN2CC1COc1cc3ncnc(Nc4ccc(Oc5ccn6ncnc6c5)c(C)c4)c3cc12` (stereo in doubt) [Compound 17, 1-((10R)-4-((4-([1,2,4]triazolo[1,5-a]pyridin-7-yloxy)-3-methylphenyl)amino)-7,8,10,11-tetrahydro-9H-6,10-methano[1,4,7]oxadiazonino[3,2-g]quinazolin-9-yl)but-2-yn-1-one]: the IC50 was over 500 nM in the experiment with Ba/F3 ERBB2 YVMA (setting [3]), over 10000 nM in experiment [1] and 1050 nM in experiment [2].

For `C=CC(=O)N1CCN2CC1COc1cc3ncnc(Nc4ccc(Oc5ccn6ncnc6c5)c(C)c4)c3nc12` (stereo in doubt) [Compound 2, 1-((10R)-4-((4-([1,2,4]triazolo[1,5-a]pyridin-7-yloxy)-3-methylphenyl)amino)-7,8,10,11-tetrahydro-9H-6,10-methanopyrimido[4′,5′:5,6]pyrido[3,2-b][1,4,7]oxadiazonin-9-yl)prop-2-en-1-one], the IC50 was 116 nM in the experiment with Ba/F3 ERBB2 YVMA (setting [4]), over 10000 nM in experiment [1] and 422 nM in experiment [2].

`CCc1ccc(Oc2ccc(Nc3ncnc4cc5c(nc34)N3CCN(C(=O)/C=C/CN(C)C)C(CO5)C3)cc2C)cn1` (stereo in doubt) [Compound 38, (E)-4-(dimethylamino)-1-((10S)-4-((4-((6-ethylpyridin-3-yl)oxy)-3-methylphenyl)amino)-7,8,10,11-tetrahydro-9H-6,10-methanopyrimido[4′,5′:5,6]pyrido[3,2-b][1,4,7]oxadiazonin-9-yl)but-2-en-1-one formic acid]: the IC50 was 11.8 nM in the experiment on Ba/F3 ERBB2 YVMA (setting [4]), 3080 nM in experiment [1] and 126 nM in experiment [2].

For the molecule `C=CC(=O)N1CCN2CC1COc1cc3ncnc(Nc4ccc(Oc5ccn6ncnc6c5)c(C)c4)c3cc12` (stereo in doubt) [Compound 5, 1-((10R)-4-((4-([1,2,4]triazolo[1,5-a]pyridin-7-yloxy)-3-methylphenyl)amino)-7,8,10,11-tetrahydro-9H-6,10-methano[1,4,7]oxadiazonino[3,2-g]quinazolin-9-yl)prop-2-en-1-one], the IC50 with Ba/F3 ERBB2 YVMA (setting [4]) was 304 nM; in experiment [1], over 10000 nM; in experiment [2], 1200 nM.

For the molecule `Cc1cc(Nc2ncnc3cc4c(nc23)N2CCCN(C(=O)/C=C/CN(C)C)C(CO4)C2)ccc1Oc1ccn2ncnc2c1` (single isomer, unassigned) [Example S55, Enantiomer 2, (E)-1-(4-((4-([1,2,4]triazolo[1,5-a]pyridin-7-yloxy)-3-methylphenyl)amino)-8,9,11,12-tetrahydro-6,11-methanopyrimido[4′,5′:5,6]pyrido[3,2-b][1,4,8]oxadiazecin-10 (7H)-yl)-4-(dimethylamino)but-2-en-1-one Enantiomer 2], the IC50 was over 500 nM with Ba/F3 ERBB2 YVMA (setting [5]) and over 10000 nM in experiment [1].

As to `[2H]C([2H])([2H])N(C/C=C/C(=O)N1CCN2CC1COc1cc3ncnc(Nc4cc(C)c(Oc5ccn6ncnc6c5)cc4F)c3nc12)C([2H])([2H])[2H]` (stereo in doubt) [Compound 46, (E)-1-((10S)-4-((4-([1,2,4]triazolo[1,5-a]pyridin-7-yloxy)-2-fluoro-5-methylphenyl)amino)-7,8,10,11-tetrahydro-9H-6,10-methanopyrimido[4′,5′:5,6]pyrido[3,2-b][1,4,7]oxadiazonin-9-yl)-4-(bis(methyl-d3)amino)but-2-en-1-one], the IC50 in the experiment with Ba/F3 ERBB2 YVMA (setting [4]) came out at 7.04 nM; in experiment [1], 2470 nM; in experiment [2] it was 6.84 nM.

Consider `[2H]C([2H])([2H])N(C/C=C/C(=O)N1CCN2CC1COc1cc3ncnc(Nc4ccc(Oc5ccn6ncnc6c5)c(C)c4)c3nc12)C([2H])([2H])[2H]` (stereo in doubt) [Compound 36, (E)-1-((10S)-4-((4-([1,2,4]triazolo[1,5-a]pyridin-7-yloxy)-3-methylphenyl)amino)-7,8,10,11-tetrahydro-9H-6,10-methanopyrimido[4′,5′:5,6]pyrido[3,2-b][1,4,7]oxadiazonin-9-yl)-4-(bis(methyl-d3)amino)but-2-en-1-one formic acid], for which the values for the IC50 (with Ba/F3 ERBB2 YVMA (setting [4]); in experiment [1]; in experiment [2]) were 6.19 nM, 1620 nM and 9.92 nM, respectively.

Regarding `CNC/C=C/C(=O)N1CCN2CC1COc1cc3ncnc(Nc4ccc(Oc5ccn6ncnc6c5)c(C)c4)c3nc12` (stereo in doubt) [Compound 37, (E)-1-((10S)-4-((4-([1,2,4]triazolo[1,5-a]pyridin-7-yloxy)-3-methylphenyl)amino)-7,8,10,11-tetrahydro-9H-6,10-methanopyrimido[4′,5′:5,6]pyrido[3,2-b][1,4,7]oxadiazonin-9-yl)-4-(methylamino)but-2-en-1-one formate], the values for the IC50 (in the experiment on Ba/F3 ERBB2 YVMA (setting [4]); in experiment [1]; in experiment [2]) were 52.3 nM, 3620 nM and 28 nM, respectively.

On to `C=CC(=O)N1CCN2CC1COc1cc3ncnc(Nc4ccc(Oc5ccn6ccnc6c5)c(C)c4)c3nc12` (stereo in doubt) [Compound 33, 1-((10S)-4-((4-(imidazo[1,2-a]pyridin-7-yloxy)-3-methylphenyl)amino)-7,8,10,11-tetrahydro-9H-6,10-methanopyrimido[4′,5′:5,6]pyrido[3,2-b][1,4,7]oxadiazonin-9-yl)prop-2-en-1-one], for which the figures for the IC50 (with Ba/F3 ERBB2 YVMA (setting [4]); in experiment [1]; in experiment [2]) were 12 nM, 164 nM and 16.8 nM, respectively.

For `Cc1cc(Nc2ncnc3cc4c(nc23)N2CCN(C(=O)/C=C/[C@H](C)N(C)C)C(CO4)C2)ccc1Oc1ccn2ncnc2c1` (stereo in doubt) [Compound 30, (4S,E)-1-((10S)-4-((4-([1,2,4]triazolo[1,5-a]pyridin-7-yloxy)-3-methylphenyl)amino)-7,8,10,11-tetrahydro-9H-6,10-methanopyrimido[4′,5′:5,6]pyrido[3,2-b][1,4,7]oxadiazonin-9-yl)-4-(dimethylamino)pent-2-en-1-one], the IC50 with Ba/F3 ERBB2 YVMA (setting [3]) is 10.5 nM; in experiment [1], over 10000 nM; in experiment [2] it was 10.6 nM.

As for `C=CC(=O)N1CCN2CC1COc1cc3ncnc(Nc4ccc(Oc5ccc(C)nc5)c(C)c4)c3nc12` (stereo in doubt) [Compound 20, 1-((10S)-4-((3-methyl-4-((6-methylpyridin-3-yl)oxy)phenyl)amino)-7,8,10,11-tetrahydro-9H-6,10-methanopyrimido[4′,5′:5,6]pyrido[3,2-b][1,4,7]oxadiazonin-9-yl)prop-2-en-1-one], the IC50 with Ba/F3 ERBB2 YVMA (setting [4]) worked out at 5.28 nM; in experiment [1], 192 nM; in experiment [2], 21.1 nM.

Regarding `Cc1cc(Nc2ncnc3cc4c(nc23)N2CCCN(C(=O)/C=C/CN(C)C)C(CO4)C2)ccc1Oc1ccn2ncnc2c1` (single isomer, unassigned) [Example S55, Enantiomer 1, (E)-1-(4-((4-([1,2,4]triazolo[1,5-a]pyridin-7-yloxy)-3-methylphenyl)amino)-8,9,11,12-tetrahydro-6,11-methanopyrimido[4′,5′:5,6]pyrido[3,2-b][1,4,8]oxadiazecin-10 (7H)-yl)-4-(dimethylamino)but-2-en-1-one Enantiomer 1], the IC50 in the experiment on Ba/F3 ERBB2 YVMA (setting [5]) was 5.88 nM; in experiment [1] it was over 10000 nM.

In the case of `C=CC(=O)N1CCN2CC1COc1cc3ncnc(Nc4ccc(Oc5ccn6ncnc6c5)c(C)c4)c3nc12` (stereo in doubt) [Compound 1, 1-((10S)-4-((4-([1,2,4]triazolo[1,5-a]pyridin-7-yloxy)-3-methylphenyl)amino)-7,8,10,11-tetrahydro-9H-6,10-methanopyrimido[4′,5′:5,6]pyrido[3,2-b][1,4,7]oxadiazonin-9-yl)prop-2-en-1-one], the IC50 amounted to 7.77 nM in the experiment with Ba/F3 ERBB2 YVMA (setting [4]), 450 nM in experiment [1] and 9.77 nM in experiment [2].

The record behind these values is patent publication US20230382923A1, “FUSED TETRACYCLIC QUINAZOLINE DERIVATIVES AS INHIBITORS OF ERBB2” (EnLiven Therapeutics, Inc., priority 2021, published 2023).
